Numbered stars: 1 amine (or outer) side, 2 acyl side, 3 side chain; on linkers, the order of the positions; unused ones are H or OH. Bridge positions count the residues as written; N and C are the ends. Square brackets hold non-standard residues; d marks the D form. Peptide text beside a SMILES is read from it. * marks the point of attachment. TBMB(SCH2CH2NH-DOTA) = O=C(O)CN1CCN(CC(=O)O)CCN(CC(=O)NCCSCc2cc(C[*:1])cc(C[*:2])c2)CCN(CC(=O)O)CC1; X24 = NCCNCC(CNCCN)C(=O)N[C@@H](CCC(=O)NC[C@H](O)[C@@H](O)[C@H](O)[C@H](O)CO)C(=O)NCCCOCCOCCOCCCN*; X9 = NCCNCC(CNCCN)C(=O)N[C@@H](CCC(=O)O)C(=O)NCCCOCCOCCOCCCN*; X10 = O=C([C@H](CCCc1cccc(C[*:3])c1)N[*:1])[*:2]; X12 = NCCNCC(CNCCN)C(=O)NCCCOCCOCCOCCCN*; mXylylene = c1cc(C[*:1])cc(C[*:2])c1; PEG6 = NCCOCCOCCOCCOCCOCCOCCC(=O)O; Suc = O=C(CCC(=O)[*:2])[*:1]; X18 = NCCNCC(CNCCN)C(=O)*; Nle = CCCC[C@H](N)C(=O)O; Hexanoyl = CCCCCC(=O)*
Columns and labels:
[1] = biological target: T1, FAP-expressing human WI-38 fibroblasts (Homo sapiens, UniProt Q12884); test: Competitive FACS binding assay; settings: pIC50 Category (FACS), competition with 3 nM Cy5-labeled compound, 4° C., 1 hour
T1 construct: FAP-expressing human WI-38 fibroblasts (ECACC) were cultured in EMEM; host or cells: WI-38 human fibroblasts
T1 sequence (Q12884 1-760): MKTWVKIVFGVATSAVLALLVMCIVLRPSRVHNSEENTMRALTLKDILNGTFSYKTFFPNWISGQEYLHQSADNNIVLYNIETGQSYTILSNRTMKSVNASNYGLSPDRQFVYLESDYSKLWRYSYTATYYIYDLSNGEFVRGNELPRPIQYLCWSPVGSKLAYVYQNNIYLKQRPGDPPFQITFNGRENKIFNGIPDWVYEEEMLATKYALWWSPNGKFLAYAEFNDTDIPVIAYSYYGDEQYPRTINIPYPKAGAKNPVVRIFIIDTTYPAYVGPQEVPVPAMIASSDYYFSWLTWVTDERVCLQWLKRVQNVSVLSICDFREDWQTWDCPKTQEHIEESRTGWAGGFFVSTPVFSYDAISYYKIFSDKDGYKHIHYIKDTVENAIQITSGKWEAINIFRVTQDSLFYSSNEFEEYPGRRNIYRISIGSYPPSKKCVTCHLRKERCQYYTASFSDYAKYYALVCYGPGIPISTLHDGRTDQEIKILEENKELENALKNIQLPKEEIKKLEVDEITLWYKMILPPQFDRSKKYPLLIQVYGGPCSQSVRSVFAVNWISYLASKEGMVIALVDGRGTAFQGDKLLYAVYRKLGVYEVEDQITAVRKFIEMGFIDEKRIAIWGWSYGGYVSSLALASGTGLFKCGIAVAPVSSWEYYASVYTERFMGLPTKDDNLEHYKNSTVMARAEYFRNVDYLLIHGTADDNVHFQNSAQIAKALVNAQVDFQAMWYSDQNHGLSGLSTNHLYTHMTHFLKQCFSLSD
Experimental: Cells were analyzed in an Attune NxT flow cytometer. […]

[2] = biological target: T2, Human recombinant FAP (Homo sapiens, UniProt Q12884); test: Surface plasmon resonance (Biacore) assay; format: binding
T2 sequence (Q12884 1-760): T1 sequence (Q12884 1-760)

[3] = biological target: T2, Human recombinant FAP; test: FRET-based FAP protease activity assay; format: biochemical; parameters: purchased R&D systems 3715-SE; settings: pIC50 Category (Activity), FRET substrate, 37° C.

Row | SMILES | IC50 [1] [nM] | Kd [2] [nM] | IC50 [3] [nM]
1 | CCCCCC(=O)N[C@H]1CSCc2cc(CSCCNC(=O)CN3CCN(CC(=O)O)CCN(CC(=O)O)CCN(CC(=O)O)CC3)cc(c2)CSC[C@@H](C(=O)NCCC(N)=O)NC(=O)[C@H](Cc2ccccc2)NC(=O)[C@H](CCC(N)=O)NC(=O)[C@H]([C@@H](C)O)NC(=O)[C@@H]2CCCN2C(=O)[C@@H]2CCCN2C1=O [3BP-3736, Hex-[Cys(tMeBn(DOTA-AET))-Pro-Pro-Thr-Gln-Phe-Cys]-Bal-NH2] | < 10 | < 10 | < 10
2 | CCCCCC(=O)N[C@H]1CSCc2cc(CSCCNC(=O)CN3CCN(CC(=O)O)CCN(CC(=O)O)CCN(CC(=O)O)CC3)cc(c2)CSC[C@@H](C(=O)N(C)CC(N)=O)NC(=O)[C@H](Cc2ccccc2)NC(=O)[C@H](CCC(N)=O)NC(=O)[C@H]([C@@H](C)O)NC(=O)[C@@H]2CCCN2C(=O)[C@@H]2CCCN2C1=O [3BP-3737, Hex-[Cys(tMeBn(DOTA-AET))-Pro-Pro-Thr-Gln-Phe-Cys]-Nmg-NH2] | < 10 | < 10 | < 10
3 | CCCCCC(=O)N[C@H]1CSCc2cc(CSCCNC(=O)CN3CCN4CCN5CCN(CC3)CC(=O)[O][Ga]([O]C(=O)C4)[O]C(=O)C5)cc(c2)CSC[C@@H](C(=O)O)NC(=O)[C@H](Cc2ccccc2)NC(=O)[C@H](CCC(N)=O)NC(=O)[C@H]([C@@H](C)O)NC(=O)[C@@H]2CCCN2C(=O)[C@@H]2CCCN2C1 [3BP-3949, Gallium-Complex of Hex-[Cys(tMeBn(DOTA-AET))-Pro-Pro-Thr-Gln-Phe-Cys]-OH] | < 10 | < 10 | < 10
4 | CCCCCC(=O)N[C@H]1CSCc2cc(CSCCNC(=O)C(CNCCN)CNCCN)cc(c2)CSC[C@@H](C(=O)O)NC(=O)[C@H](Cc2ccccc2)NC(=O)[C@H](CCC(N)=O)NC(=O)[C@H]([C@@H](C)O)NC(=O)[C@@H]2CCCN2C(=O)[C@@H]2CCCN2C1=O [3BP-4063, Hex-[Cys-(tMeBn(N4Ac-AET))-Pro-Pro-Thr-Gln-Phe-Cys]-OH] | < 10 | < 10 | < 10
5 | CCCCCC(=O)N[C@H]1CSCc2cc(CSCCNC(=O)COCCOCCNC(=O)C(CNCCN)CNCCN)cc(c2)CSC[C@@H](C(=O)O)NC(=O)[C@H](Cc2ccccc2)NC(=O)[C@H](CCC(N)=O)NC(=O)[C@H]([C@@H](C)O)NC(=O)[C@@H]2CCCN2C(=O)[C@@H]2CCCN2C1=O [3BP-4088, Hex-[Cys-(tMeBn(N4Ac-O2Oc-AET))-Pro-Pro-Thr-Gln-Phe-Cys]-OH] | < 10 | < 10 | < 10
6 | CCCC[C@H](NC(=O)CCC(=O)NCCCOCCOCCOCCCNC(=O)C(CNCCN)CNCCN)C(=O)N[C@H]1CSCc2cccc(c2)CSC[C@@H](C(=O)O)NC(=O)[C@H](Cc2ccccc2)NC(=O)[C@H](CCC(=O)O)NC(=O)[C@H]([C@@H](C)O)NC(=O)[C@@H]2CCCN2C(=O)[C@@H]2CCCN2C1=O [3BP-4161, N4Ac-Ttds-Nle-[Cys-(3MeBn)-Pro-Pro-Thr-Glu-Phe-Cys]-OH] ({X12-Suc}-[Nle]CPPTEFC-OH; linker 2-8 via mXylylene) | < 10 | < 10 | < 10
7 | CCCCCC(=O)N[C@H]1CSCc2cc(CSCCNC(=O)CC[C@H](C(=O)O)N3CCN(CC(=O)O)CN(CC(=O)O)C3)cc(c2)CSC[C@@H](C(=O)O)NC(=O)[C@H](Cc2ccccc2)NC(=O)[C@H](CCC(N)=O)NC(=O)[C@H]([C@@H](C)O)NC(=O)[C@@H]2CCCN2C(=O)[C@@H]2CCCN2C1=O [3BP-4162, Hex-[Cys-(tMeBn(NODAGA-AET))-Pro-Pro-Thr-Gln-Phe-Cys]-OH] | < 10 | < 10 | < 10
8 | CCCCCC(=O)N[C@H]1CSCc2cc(cc(CN3CCN(C(=O)C(CNCCN)CNCCN)CC3)c2)CSC[C@@H](C(=O)O)NC(=O)[C@H](Cc2ccccc2)NC(=O)[C@H](CCC(N)=O)NC(=O)[C@H]([C@@H](C)O)NC(=O)[C@@H]2CCCN2C(=O)[C@@H]2CCCN2C1=O [3BP-4168, Hex-[Cys-(tMeBn(N4Ac-PP))-Pro-Pro-Thr-Gln-Phe-Cys]-OH] | < 10 | < 10 | < 10
9 | CCCCCC(=O)N[C@H]1CSCc2cc(CSCCNC(=O)CCCN(C)C(=O)c3ccccc3-c3c4ccc(=N)c(S(=O)(=O)O)c-4oc4c(S(=O)(=O)O)c(N)ccc34)cc(c2)CSC[C@@H](C(=O)O)NC(=O)[C@H](Cc2ccccc2)NC(=O)[C@H](CCC(N)=O)NC(=O)[C@H]([C@@H](C)O)NC(=O)[C@@H]2CCCN2C(=O)[C@@H]2CCCN2C1=O [3BP-4182, Hex-[Cys(tMeBn(ATTO488-AET))-Pro-Pro-Thr-Gln-Phe-Cys]-OH] | 10 to 79.4 | 10 to 79.4 | 10 to 79.4
10 | CCCCCC(=O)N[C@H]1CSCc2cc(CSCCNC(=O)CC[C@@H]3C(=O)[O][Ga]([O]C(=O)CN(C)CC)[O]C(=O)CN(C)CCN3CC)cc(c2)CSC[C@@H](C(=O)O)NC(=O)[C@H](Cc2ccccc2)NC(=O)[C@H](CCC(N)=O)NC(=O)[C@H]([C@@H](C)O)NC(=O)[C@@H]2CCCN2C(=O)[C@@H]2CCCN2C1=O [3BP-4184, Gallium-Complex of Hex-[Cys(tMeBn(NODAGA-AET))-Pro-Pro-Thr-Gln-Phe-Cys]-OH] | < 10 | < 10 | < 10
11 | CCCC[C@H](NC(=O)CCC(=O)NCCCOCCOCCOCCCNC(=O)C(CNCCN)CNCCN)C(=O)N[C@H]1CSCc2cccc(c2)CSC[C@@H](C(=O)O)NC(=O)[C@H](Cc2ccccc2)NC(=O)[C@H](CCC(N)=O)NC(=O)[C@H]([C@@H](C)O)NC(=O)[C@@H]2CCCN2C(=O)[C@@H]2CCCN2C1=O [3BP-4219, N4Ac-Ttds-Nle-[Cys-(3MeBn)-Pro-Pro-Thr-Gln-Phe-Cys]-OH] | 10 to 79.4 | < 10 | < 10
12 | CCCC[C@H](NC(=O)CCOCCOCCOCCOCCOCCOCCNC(=O)C(CNCCN)CNCCN)C(=O)N[C@H]1CSCc2cccc(c2)CSC[C@@H](C(=O)O)NC(=O)[C@H](Cc2ccccc2)NC(=O)[C@H](CCC(=O)O)NC(=O)[C@H]([C@@H](C)O)NC(=O)[C@@H]2CCCN2C(=O)[C@@H]2CCCN2C1=O [3BP-4221, N4Ac-PEG6-Nle-[Cys-(3MeBn)-Pro-Pro-Thr-Glu-Phe-Cys]-OH] ({X18-PEG6}-[Nle]CPPTEFC-OH; linker 2-8 via mXylylene) | 10 to 79.4 | < 10 | 10 to 79.4
13 | CCCC[C@H](NC(=O)CCC(=O)NCCCOCCOCCOCCCNC(=O)[C@H](CCC(=O)O)NC(=O)C(CNCCN)CNCCN)C(=O)N[C@H]1CSCc2cccc(c2)CCC[C@@H](C(=O)O)NC(=O)[C@H](Cc2ccccc2)NC(=O)[C@H](CCC(=O)O)NC(=O)[C@H]([C@@H](C)O)NC(=O)[C@@H]2CCCN2C(=O)[C@@H]2CCCN2C1=O [3BP-4222, N4Ac-Glu-Ttds-Nle-[Cys-(3MeBn)-Pro-Pro-Thr-Glu-Phe-Cys]-OH] ({X9-Suc}-[Nle]CPPTEF[X10]-OH; thioether 2-8) | 10 to 79.4 | < 10 | 10 to 79.4
14 | CCCC[C@H](NC(=O)CCC(=O)NCCCOCCOCCOCCCNC(=O)[C@H](CCC(=O)NC[C@H](O)[C@@H](O)[C@H](O)[C@H](O)CO)NC(=O)C(CNCCN)CNCCN)C(=O)N[C@H]1CSCc2cccc(c2)CSC[C@@H](C(=O)O)NC(=O)[C@H](Cc2ccccc2)NC(=O)[C@H](CCC(=O)O)NC(=O)[C@H]([C@@H](C)O)NC(=O)[C@@H]2CCCN2C(=O)[C@@H]2CCCN2C1=O [3BP-4246, N4Ac-Glu(AGLU)-Ttds-Nle-[Cys-(3MeBn)-Pro-Pro-Thr-Gln-Phe-Cys]-OH] ({X24-Suc}-[Nle]CPPTEFC-OH; linker 2-8 via mXylylene) | 10 to 79.4 | < 10 | 10 to 79.4
15 | CCCCCC(=O)N[C@H]1CSCc2cc(CSCCNC(=O)CN3CCN(CC(=O)O)CCN(CC(=O)O)CCN(CC(=O)O)CC3)cc(c2)CSC[C@@H](C(=O)O)NC(=O)[C@H](Cc2ccccc2)NC(=O)[C@H](CCC(=O)O)NC(=O)[C@H]([C@@H](C)O)NC(=O)[C@@H]2CCCN2C(=O)[C@@H]2CCCN2C1=O [3BP-4250, Hex-[Cys-(tMeBn(DOTA-AET))-Pro-Pro-Thr-Glu-Phe-Cys]-OH] (Hexanoyl-CPPTEFC-OH; linker 1-7 via TBMB(SCH2CH2NH-DOTA)) | < 10 | < 10 | 10 to 79.4
16 | CCCCCC(=O)N[C@H]1CSCc2cc(CSCCNC(=O)COCCOCCNC(=O)CC[C@H](C(=O)O)N3CCN(CC(=O)O)CCN(CC(=O)O)CC3)cc(c2)CSC[C@@H](C(=O)O)NC(=O)[C@H](Cc2ccccc2)NC(=O)[C@H](CCC(N)=O)NC(=O)[C@H]([C@@H](C)O)NC(=O)[C@@H]2CCCN2C(=O)[C@@H]2CCCN2C1=O [3BP-4251, Hex-[Cys-(tMeBn(NODAGA-O2Oc-AET))-Pro-Pro-Thr-Gln-Phe-Cys]-OH] | < 10 | < 10 | < 10

From US20220315554A1, “COMPOUNDS COMPRISING A […] LIGAND AND USE THEREOF” (priority 2019, published 2022)
